From ChEMBL document CHEMBL5338801, “Carbohydrate Strengthens the Immunotherapeutic Effect of Small-Molecule PD-L1 Inhibitors” (J Med Chem, 2023)

Experiments:
[1] = biological target: Programmed cell death protein 1/Programmed cell death 1 ligand 1 (Homo sapiens, UniProt Q9NZQ7); assay: Inhibition of PD-1/PD-L1 (unknown origin) interaction incubated for 15 mins by HTRF assay; format: protein-complex assay
Jurkat = assay: Cytotoxicity against human Jurkat cells assessed as cell growth inhibition incubated for 48 hrs by MTT assay; format: functional, cell-based
[2] = Partition coefficient, logD of compound in 1-octanol and phosphate buffer at pH 7.4 incubated for 1 hr under shaking condition by HPLC analysis; format: physicochemical; conditions: for logD at 1 h: 1-octanol/phosphate buffer, pH 7.4
[3] = Cytotoxicity against human Jurkat T cells assessed as cell viability at 10 uM incubated for 48 hrs by MTT assay; format: toxicity, cell-based; conditions: read-out: Activity
[4] = biological target: Programmed cell death protein 1/Programmed cell death 1 ligand 1 (Homo sapiens) (UniProt Q15116+Q9NZQ7); conditions: dose 300.0 nM, time 15.0 min

Chain of Programmed cell death protein 1/Programmed cell death 1 ligand 1 (Q15116 whole entry): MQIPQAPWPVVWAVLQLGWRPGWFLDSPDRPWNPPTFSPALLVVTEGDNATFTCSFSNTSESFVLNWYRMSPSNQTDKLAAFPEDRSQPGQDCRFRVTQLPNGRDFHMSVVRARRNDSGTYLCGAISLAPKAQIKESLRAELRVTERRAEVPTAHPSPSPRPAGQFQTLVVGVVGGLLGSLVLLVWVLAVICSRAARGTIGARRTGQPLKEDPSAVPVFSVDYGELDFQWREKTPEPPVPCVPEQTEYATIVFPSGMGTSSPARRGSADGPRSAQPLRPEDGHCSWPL
Chain of Programmed cell death protein 1/Programmed cell death 1 ligand 1 (Q9NZQ7 whole entry): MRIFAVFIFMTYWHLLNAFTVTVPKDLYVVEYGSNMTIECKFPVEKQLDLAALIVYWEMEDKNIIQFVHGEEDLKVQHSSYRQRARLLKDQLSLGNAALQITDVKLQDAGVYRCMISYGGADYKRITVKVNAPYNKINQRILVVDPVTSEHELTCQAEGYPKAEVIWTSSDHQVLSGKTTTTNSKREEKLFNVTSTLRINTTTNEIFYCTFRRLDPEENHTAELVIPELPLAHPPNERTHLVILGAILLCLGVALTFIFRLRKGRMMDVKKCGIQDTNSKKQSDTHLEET

Compound `COc1ccc(CNCc2cn([C@H]3O[C@H](CO)[C@@H](O)[C@H](O)[C@@H]3O)nn2)cc1OCc1cccc(-c2ccccc2)c1C` has an IC50 [1] of 1.15 µM and an IC50 (Jurkat) of 73.9 µM.

With `COc1cc(OCc2cccc(-c3ccccc3)c2C)cc(OC)c1CNCCO` the logD at 1 h [2] was 2.85, the viability at 48 h, 10 µM [3] was 0% and the IC50 (Jurkat) was 5.7 µM.

`COc1cc(OCc2cccc(-c3ccccc3)c2C)cc(OC)c1CNCc1cnnn1[C@H]1OC[C@@H](O)[C@H](O)[C@@H]1O` showed an IC50 [1] of 0.169 µM and an IC50 (Jurkat) of 24.9 µM.

`COc1cc(OCc2cccc(-c3ccccc3)c2C)cc(OC)c1CNCc1cn([C@@H]2OC[C@@H](O)[C@@H](O)[C@H]2O)nn1` showed an IC50 [1] of 0.206 µM and an IC50 (Jurkat) of 14.9 µM.

Compound `Cc1c(COc2cc(CNCCO)ccc2Cl)cccc1-c1ccccc1` has an inhibition [4] of 51.4% and an IC50 (Jurkat) of 7.8 µM.

Compound `COc1nc(OCc2cccc(-c3ccccc3)c2C)ccc1CNCc1cn([C@@H]2OC[C@@H](O)[C@@H](O)[C@H]2O)nn1` has an IC50 [1] of 0.0989 µM and an IC50 (Jurkat) of 16.9 µM.

With `COc1cc(OCc2cccc(-c3ccccc3)c2C)cc(OC)c1CNCc1cn([C@@H]2OC[C@H](O)[C@@H](O)[C@H]2O)nn1` the IC50 [1] was 0.321 µM and the IC50 (Jurkat) was 19.8 µM.

`COc1cc(OCc2cccc(-c3ccccc3)c2C)cc(OC)c1CNCc1cn([C@@H]2O[C@H](CO)[C@@H](O)[C@H](O)[C@H]2O)nn1` gave an IC50 [1] of 0.147 µM and an IC50 (Jurkat) greater than 100 µM.

For `COc1nc(OCc2cccc(-c3ccccc3)c2C)ccc1CNCc1cn([C@@H]2O[C@H](CO)[C@@H](O)[C@H](OC)[C@H]2O)nn1`, the IC50 [1] was 0.305 µM and the IC50 (Jurkat) was 34.3 µM.

In the case of `COc1ccc(CNCc2cn([C@H]3OC[C@@H](O)[C@H](O)[C@@H]3O)nn2)cc1OCc1cccc(-c2ccccc2)c1C`, the IC50 [1] is reported as 0.503 µM and the IC50 (Jurkat) is reported as 43.5 µM.

Compound `COc1cc(OCc2cccc(-c3ccccc3)c2C)cc(OC)c1CNCc1cn([C@H]2O[C@@H](C)[C@@H](O)[C@@H](O)[C@@H]2O)nn1` has an IC50 [1] of 0.161 µM and an IC50 (Jurkat) of 30.8 µM.

For `COc1cc(OCc2cccc(-c3ccccc3)c2C)cc(OC)c1CNCc1cn([C@@H]2O[C@H](CO)[C@@H](O)[C@H](OC)[C@H]2O)nn1`, the IC50 [1] was 0.355 µM and the IC50 (Jurkat) was 44 µM.

`CN(C)CCCN1c2ccccc2Sc2ccc(Cl)cc21` [CHLORPROMAZINE] gave a logD at 1 h [2] of 3.18.

In the case of `COc1cc(OCc2cccc(-c3ccccc3)c2C)cc(OC)c1CNCc1cn([C@@H]2O[C@@H]3CO[C@@H](c4ccccc4)O[C@H]3[C@H](O)[C@H]2O)nn1`, the IC50 [1] is reported as 1.09 µM and the IC50 (Jurkat) is reported as 4.5 µM.

With `COc1ccc(CNCc2cn([C@@H]3O[C@H](CO)[C@H](O)[C@H](O)[C@H]3O)nn2)cc1OCc1cccc(-c2ccccc2)c1C` the IC50 [1] was 0.612 µM and the IC50 (Jurkat) was greater than 100 µM.

Compound `Cc1cc(OCc2cccc(-c3ccccc3)c2C)cc(C)c1CNCCO` has an inhibition [4] of 62.8% and an IC50 (Jurkat) of 4.1 µM.

`COc1ccc(CNCc2cn([C@@H]3OC[C@H](O)[C@H](O)[C@H]3O)nn2)cc1OCc1cccc(-c2ccccc2)c1C` gave an IC50 [1] of 1.24 µM and an IC50 (Jurkat) of 49.2 µM.

With `COc1ccc(CNCCO)cc1OCc1cccc(-c2ccccc2)c1C` the inhibition [4] was 26.9% and the IC50 (Jurkat) was 17.9 µM.

For `COc1nc(OCc2cccc(-c3ccccc3)c2C)ccc1CNCc1cn([C@@H]2O[C@@H]3CO[C@@H](c4ccccc4)O[C@H]3[C@H](O)[C@H]2O)nn1`, the IC50 [1] was 0.461 µM and the IC50 (Jurkat) was 8.8 µM.

`COc1ccc(CNCc2cn([C@@H]3O[C@H](CO)[C@@H](O)[C@H](O)[C@H]3O)nn2)cc1OCc1cccc(-c2ccccc2)c1C` showed an IC50 [1] of 1.76 µM and an IC50 (Jurkat) greater than 100 µM.

`COc1cc(OCc2cccc(-c3ccccc3)c2C)cc(OC)c1CNCc1cn([C@@H]2O[C@H](CO)[C@@H](O)[C@H](O)[C@H]2NC(C)=O)nn1` showed an IC50 [1] of 0.03 µM and an IC50 (Jurkat) greater than 100 µM.

`COc1nc(OCc2cccc(-c3ccccc3)c2C)ccc1CNCc1cnnn1[C@H]1OC[C@@H](O)[C@H](O)[C@@H]1O` gave an IC50 [1] of 0.118 µM and an IC50 (Jurkat) of 26.7 µM.

`COc1cc(OCc2cccc(-c3ccccc3)c2C)cc(OC)c1CNCc1cn([C@H]2O[C@H](CO)[C@@H](O)[C@H](O)[C@@H]2O)nn1` gave an IC50 [1] of 0.114 µM and an IC50 (Jurkat) of 50.5 µM.

`Cc1c(COc2ccc(Cl)c(CNCCO)c2)cccc1-c1ccccc1` showed an inhibition [4] of 36.7% and an IC50 (Jurkat) of 12.4 µM.

For `Cc1c(COc2ccc(CNCCO)cc2F)cccc1-c1ccccc1`, the inhibition [4] was 57.1% and the IC50 (Jurkat) was 5.4 µM.

For `COc1nc(OCc2cccc(-c3ccccc3)c2C)ccc1CNCc1cn([C@H]2O[C@@H](C)[C@@H](O)[C@@H](O)[C@@H]2O)nn1`, the IC50 [1] was 0.178 µM and the IC50 (Jurkat) was 24.5 µM.

Work on `COc1ccc(CNCc2cn([C@@H]3O[C@@H]4CO[C@@H](c5ccccc5)O[C@H]4[C@H](O)[C@H]3O)nn2)cc1OCc1cccc(-c2ccccc2)c1C` yielded an IC50 [1] of 2.96 µM and an IC50 (Jurkat) of 6.2 µM.

With `COc1ccc(CNCc2cn([C@@H]3OC[C@H](O)[C@@H](O)[C@H]3O)nn2)cc1OCc1cccc(-c2ccccc2)c1C` the IC50 [1] was 1.48 µM and the IC50 (Jurkat) was 53.9 µM.

`COc1cc(OCc2cccc(-c3ccccc3)c2C)cc(OC)c1CNCc1cn([C@@H]2OC[C@@H](O)[C@H](O)[C@H]2O)nn1` showed an IC50 [1] of 0.353 µM and an IC50 (Jurkat) of 27.6 µM.

Work on `COc1nc(OCc2cccc(-c3ccccc3)c2C)ccc1CNCc1cn([C@@H]2O[C@H](CO)[C@H](O)[C@H](O)[C@H]2O)nn1` yielded an IC50 [1] of 0.174 µM and an IC50 (Jurkat) greater than 100 µM.

With `COc1ccc(CNCc2cn([C@@H]3OC[C@@H](O)[C@H](O)[C@H]3O)nn2)cc1OCc1cccc(-c2ccccc2)c1C` the IC50 [1] was 1.78 µM and the IC50 (Jurkat) was 47.5 µM.

Compound `COc1ccc(CNCc2cn([C@@H]3O[C@H](CO)[C@@H](O)[C@H](OC)[C@H]3O)nn2)cc1OCc1cccc(-c2ccccc2)c1C` has an IC50 [1] of 0.384 µM and an IC50 (Jurkat) of 50 µM.

With `COc1nc(OCc2cccc(-c3ccccc3)c2C)ccc1CNCc1cn([C@H]2O[C@H](CO)[C@@H](O)[C@H](O)[C@@H]2O)nn1` the IC50 [1] was 0.164 µM and the IC50 (Jurkat) was 46 µM.

`COc1nc(OCc2cccc(-c3ccccc3)c2C)ccc1CNCc1cn([C@@H]2O[C@H](CO)[C@@H](O)[C@H](O)[C@H]2NC(C)=O)nn1` gave an IC50 [1] of 0.0237 µM and an IC50 (Jurkat) greater than 100 µM.

With `COc1nc(OCc2cccc(-c3ccccc3)c2C)ccc1CNCc1cn([C@@H]2O[C@H](CO)[C@@H](O)[C@H](O)[C@H]2O)nn1` the IC50 [1] was 0.0561 µM and the IC50 (Jurkat) was greater than 100 µM.

Work on `COc1cc(OCc2cccc(-c3ccccc3)c2C)cc(OC)c1CNCc1cn([C@@H]2OC[C@H](O)[C@H](O)[C@H]2O)nn1` yielded an IC50 [1] of 0.507 µM and an IC50 (Jurkat) of 43.4 µM.

For `COc1cc(OCc2cccc(-c3ccccc3)c2C)cc(OC)c1CNCc1cn([C@@H]2O[C@H](CO)[C@H](O)[C@H](O)[C@H]2O)nn1`, the IC50 [1] was 0.454 µM and the IC50 (Jurkat) was 27.3 µM.

Compound `COc1nc(OCc2cccc(-c3ccccc3)c2C)ccc1CNCCO` has an inhibition [4] of 94.5%, a logD at 1 h [2] of 3.23 and a viability at 48 h, 10 µM [3] of 0%. For the same compound, the IC50 (Jurkat) was 2.8 µM.

With `COc1nc(OCc2cccc(-c3ccccc3)c2C)ccc1CNCc1cn([C@@H]2OC[C@@H](O)[C@H](O)[C@H]2O)nn1` the IC50 [1] was 0.11 µM and the IC50 (Jurkat) was 25.5 µM.

For `CN(C)CCC=C1c2ccccc2CCc2ccccc21` [AMITRIPTYLINE], the logD at 1 h [2] was 3.

With `COc1ccc(CNCc2cn([C@@H]3OC[C@@H](O)[C@@H](O)[C@H]3O)nn2)cc1OCc1cccc(-c2ccccc2)c1C` the IC50 [1] was 2.26 µM and the IC50 (Jurkat) was 31.3 µM.

Compound `CC(C)(C)NCC(O)COc1cccc2c1CC(O)C(O)C2` (stereo not drawn) [NADOLOL] has a logD ([2]; octanol/water, pH 7.4, 1 h) of -1.2.

`COc1ccc(CNCc2cn([C@@H]3O[C@H](CO)[C@@H](O)[C@H](O)[C@H]3NC(C)=O)nn2)cc1OCc1cccc(-c2ccccc2)c1C` gave an IC50 [1] of 1.09 µM and an IC50 (Jurkat) greater than 100 µM.

With `COc1ccc(CNCc2cn([C@H]3O[C@@H](C)[C@@H](O)[C@@H](O)[C@@H]3O)nn2)cc1OCc1cccc(-c2ccccc2)c1C` the IC50 [1] was 1.92 µM and the IC50 (Jurkat) was 53.1 µM.
